“And” between values parts separate entries of the source, which are not always exact repeats. Equal entries are not always repeated. “Also recorded” adds a separate entry of the source. Where two headings read alike, the source gives them in different places. Where no end group is shown, it is not given here.
Assays:
[1] = tested on: Hansen YC-380 lactic ferment; assay: Fermentation of dairy mix containing DMV C12 hydrolysate (FIG. 3); set-up: species or system lactic bacteria; conditions: 1.5 g/l of DMV C12 hydrolysate, fermentation up to pH 4.7
Source text: FIG. 3: Compared peptide profiles (LC-MS/MS chromatograms) of a dairy “mix” containing 1.5 g/l of DMV C12® hydrolysate, before (1) and after (2) fermentation up to pH 4.7 by the Hansen YC-380 lactic ferment. Virtually all of the hydrolysate peptides, including the bioactive C12 peptide (αS1 [23-34] fragment), disappeared following metabolism by the ferment strains.
In addition, in order to verify that this phenomenon was not specific to Lactium®, several combinations of ferments and other ingredients containing bioactive peptides were studied by implementing the same test (reconstituted milk and an ingredient to be tested in an amount of 1.5 g/l, fermented under standard conditions, fermentation stopped at pH 4.7, two repetitions).

[2] = In vivo animal; Migliore-Samour 1988; cited from earlier work
platelet aggregation = conditions: In vitro; Jollès 1986; Raha 1988; cited from earlier work
[3] = tested on: experimental arterial thrombosis; conditions: Rat and guinea pig with experimental arterial thrombosis; after IV injection; Drouet 1990; cited from earlier work
[4] = tested on: mouse peritoneal macrophages; conditions: In vitro; Parker 1996; cited from earlier work
arterial pressure [5] = conditions: Hypertensive rats; after ingestion; Nakamura 1995; cited from earlier work
arterial pressure [6] = conditions: Hypertensive humans (36 subjects); 8 weeks of ingestion of 95 ml/d; Hata 1996; cited from earlier work
arterial pressure [7] = conditions: Normal rats; Nakamura 1995; cited from earlier work
Staphylococcus aureus = conditions: Mouse, sheep; IM injection; Lahov 1996; cited from earlier work
[8] = tested on: ferment consisting of a mixture of the strains I-2783, I-2774, I-2835 and I-1968, or YC-380; assay: Fermentation of dairy mix supplemented with Lactium; residual peptides by HPLC-MS/MS; set-up: species or system lactic bacteria; conditions: 1.5 g/l Lactium added before fermentation; four-strain ferment or YC-380; to pH 4.70
Experimental: The medium was prepared by hydration of powdered skim milk to 120 g/l, supplemented with 1.5 g/l of Lactium® (corresponding to approximately 30 mg/l of the bioactive αS1 [91-100] peptide), then pasteurized at 95° C. for 8 minutes.
The lactic ferment was added in a proportion of 0.02% and fermentation was carried out at the optimal temperature for the selected ferment (37-42° C.) until a pH of 4.70 was reached.
After centrifugation, the supernatant constituted the representative sample of the peptide content of the fermented medium. • Said sample was injected into an Agilent 1100 HPLC system (Agilent Technologies France, 1 rue Galvani, 91745 Massy Cedex, France), equipped with a Waters Symetry® column suitable for peptide analysis (5 μm, 2.1×150 mm, WAT056975, Waters France, 5, rue Jacques Monod, 78280 Guyancourt) at a temperature of 40° C. and a flow rate of 0.25 ml/min. […] For example, the αS1 [91-100] peptide was isolated from its mass (doubly charged ion of mass 634.5 Da) and quantified from the intensity of its characteristic daughter ions after fragmentation (ions for m/z=991.5 Da, 771.5 Da and 658.3 Da). […]

[9] = Fermented product heat treated at 75° C for 1 minute, storage at 10° C (FIG. 5); conditions: 75° C. for approximately 1 min; stored at 10° C. until UBD
Experimental: Since the consumption of the bioactive peptide is caused by the metabolic activity of the ferments, it may be considered useful to reduce this phenomenon by destroying all or part of the microorganisms, for example using a suitable heat treatment (thermization or pasteurization).
FIG. 5: Curves illustrating the evolution of the residual content in bioactive αS1 [91-100] peptide added after fermentation in a fermented product which was then heat treated at 75° C. for 1 minute and then stored at 10° C. until the use-by date (UBD).

[10] = tested on: ferment containing strains I-2783, I-2774, I-2835 and I-1968; assay: Peptide added after fermentation, storage at 10° C (FIG. 4); set-up: species or system lactic bacteria
Experimental: FIG. 4: Curves illustrating the evolution of the residual content in bioactive αS1 [91-100] peptide in a final product comprised of 95% mass fermented by the ferment containing strains I-2783, I-2774, I-2835 and I-1968 and 5% flavored sugar syrup containing the αS1 [91-100] peptide, during storage at 10° C. The experiment was comprised of four independent tests: E1, E2, E3 and E4.
A logical alternative to the procedure studied above is to introduce the functional ingredient after fermentation (“delayed differentiation” procedure), for example with the syrup used to flavor the fermented mass.

Lactobacillus I-1632 = assay: Fermentation of Lactium milk by pure strain; conditions: dairy mix containing 1.5 g/l of Lactium; pure strain I-1632; stopped at pH 4.7
Experimental: (§1) After centrifugation, the supernatant constituted the representative sample of the peptide content of the fermented medium. • Said sample was injected into an Agilent 1100 HPLC system (Agilent Technologies France, 1 rue Galvani, 91745 Massy Cedex, France), equipped with a Waters Symetry® column suitable for peptide analysis (5 μm, 2.1×150 mm, WAT056975, Waters France, 5, rue Jacques Monod, 78280 Guyancourt) at a temperature of 40° C. and a flow rate of 0.25 ml/min. The peptides were eluted in a conventional way with an increasing gradient of solvent B (acetonitrile and 0.100% formic acid) in solvent A (water and 0.106% formic acid) for a period of 40 minutes to 2 hours as a function of the resolution desired. • Detection was carried out using a specific MS/MS detector, for example with an ionic trap device such as the Esquire 3000+(Bruker Daltonique, rue de l'Industrie, 67166 Wissembourg Cedex) set either for overall analysis of peptide content (MS-MS mode) or for the precise and specific quantification of a peptide from its characteristic fragments. For example, the αS1 [91-100] peptide was isolated from its mass (doubly charged ion of mass 634.5 Da) and quantified from the intensity of its characteristic daughter ions after fragmentation (ions for m/z=991.5 Da, 771.5 Da and 658.3 Da). In an even more precise manner, an internal standard comprised of the same doubly deuterated synthetic peptide (993.5 Da characteristic fragment) made it possible to take into account and to exclude potential interference related to the matrix.
(§2) In order to verify that this phenomenon was not specific to the two ferments used in paragraph 1.1) above, the principle industrial ferments, as well as various pure strains used in the composition of said ferments, were examined using the same test: milk reconstituted from powdered milk, to which Lactium® was added in an amount of 1.5 g/l, was fermented under standard conditions (optimal temperature for the ferment between 37° C. and 42° C., fermentation stopped at pH 4.7, two repetitions). Analysis of the level of bioactive αS1 [91-100] peptide was then carried out on the sample before and after fermentation.
(§3) In table 3 above, which reflects the consumption of the bioactive αS1 [91-100] peptide by various ferments and industrial strains during the fermentation of a dairy mix containing 1.5 g/l of Lactium®, the pure strains were identified by their CNCM (Pasteur Institute, Paris, France) number and deposit date.

Lactobacillus I-2809 = assay: Fermentation of Lactium milk by pure strain; conditions: dairy mix containing 1.5 g/l of Lactium; pure strain I-2809; stopped at pH 4.7
Experimental: as §1, §2, §3

S. thermophilus I-1630 = assay: Fermentation of Lactium milk by pure strain; conditions: dairy mix containing 1.5 g/l of Lactium; pure strain I-1630; stopped at pH 4.7
Experimental: as §1, §2, §3

Lactobacillus I-1519 = assay: Fermentation of Lactium milk by pure strain; conditions: dairy mix containing 1.5 g/l of Lactium; pure strain I-1519; stopped at pH 4.7
Experimental: as §1, §2, §3

S. thermophilus I-1477 = assay: Fermentation of Lactium milk by pure strain; conditions: dairy mix containing 1.5 g/l of Lactium; pure strain I-1477; stopped at pH 4.7
Experimental: as §1, §2, §3

Lactobacillus I-1968 = assay: Fermentation of Lactium milk by pure strain; conditions: dairy mix containing 1.5 g/l of Lactium; pure strain I-1968; stopped at pH 4.7
Experimental: as §1, §2, §3

Substance: C12 peptide: bioactive C12 peptide (αS1 [23-34] fragment) of DMV C12® hydrolysate (FFVAPFPEVFGK; UniProt P02662 38-49, looked up, fragment)
- hydrolysate peptides after fermentation (LC-MS/MS peptide profile) [1]: disappeared

Substance: Casein 63-68: Bovine β-casein, Casein 63-68 (PGPIPN; UniProt P02666 78-83, looked up, fragment)
- protection in vivo [2]: No protection in vivo

Substance: Casein 191-193: Bovine β-casein, Casein 191-193 (LLY; UniProt P02666 206-208, looked up, fragment)
- protection in vivo [2]: No protection in vivo

Substance: Human lactotransferrin tetrapeptide (39-42): Human lactotransferrin tetrapeptide (39-42) (RDSP; UniProt P02788 58-61, looked up, fragment)
- platelet aggregation (platelet aggregation): Inhibition of platelet
- antithrombotic activity [3]: after IV injection, antithrombotic

Substance: Human β-casein 54-59: Human β-casein 54-59 (VEPIPY; UniProt P05814 69-74, looked up, fragment)
- sheep red blood cell phagocytosis by mouse peritoneal macrophages [4]: Stimulation of sheep red blood

Substance: II-Pro-Pro
- arterial pressure (arterial pressure [5]): ingestion, decrease in arterial
- arterial pressure (arterial pressure [6]): decrease in arterial pressure
- arterial pressure (arterial pressure [7]): Normal rats: no effect

Substance: Peptide 106-116 of bovine κ-casein: Peptide 106-116 of bovine κ-casein (MAIPPKKNQDK; UniProt P02668 127-137, looked up, fragment)
- platelet aggregation (platelet aggregation): Inhibition of platelet

Substance: RPKHPIKHQGLPQEVLNENLLRF [αS1B-casein fragment (1-23 N terminal)]
- efficacy against Staphylococcus aureus (Staphylococcus aureus): Mouse, sheep: effective via IM injection

Substance: Val-Pro-Pro
- arterial pressure (arterial pressure [5]): ingestion, decrease in arterial
- arterial pressure (arterial pressure [6]): decrease in arterial pressure
- arterial pressure (arterial pressure [7]): Normal rats: no effect

Substance: α-lactalbumin 51-53: α-lactalbumin 51-53 (GLF; UniProt P00711 70-72, looked up, fragment)
- sheep red blood cell phagocytosis by mouse peritoneal macrophages [4]: Stimulation of sheep red blood

Substance: αS1 [91-100] peptide: peptide with anti-convulsive properties contained in milk protein hydrolysates, marketed by Ingredia under the name Lactium® (YLGYLEQLLR; UniProt P02662 106-115, looked up, fragment)
- bioactive αS1 [91-100] peptide consumed after fermentation [8]: more than 95%
- stability of αS1 [91-100] peptide in heat-treated fermented product [9]: possible to assure the stability; also recorded: possible to preserve
- initial quantity of active peptide left on the use-by date (UBD) ([10]; added cold (4° C.) after fermentation, 1.5 g of Lactium per kg of final product, storage at 10° C.): 30-40%
- αS1 [91-100] peptide disappeared during storage of the final product ([10]; after 10 days, fresh products whose UBD is 28 days): 35-50% and 35-55%
- % of αS1 [91-100] peptide remaining after fermentation (Lactobacillus I-1632): 0.2%
- % of αS1 [91-100] peptide remaining after fermentation (Lactobacillus I-2809): 0.4%
- % of αS1 [91-100] peptide remaining after fermentation (S. thermophilus I-1630): 0.3%
- % of αS1 [91-100] peptide remaining after fermentation (Lactobacillus I-1519): 0.1%
- % of αS1 [91-100] peptide remaining after fermentation (S. thermophilus I-1477): 0.3%
- % of αS1 [91-100] peptide remaining after fermentation (Lactobacillus I-1968): 1.6%

— patent publication US20070298144A1, “Method for Protecting Bioactive Food Ingredients Using Decoy Ingredients” (COMPAGNIE GERVAIS DANONE, priority 2004, published 2007)
